ChEMBL document CHEMBL6074659, “Development of an Intravenously Stable Disulfide-Rich Peptide for the Treatment of Chemotherapy-Induced Neuropathic Pain” (J Med Chem, 2024)
Positions of bridges follow the written chain, without caps; N, C: chain ends. Non-standard residues stand in square brackets, D forms with d. Residues, ends and D or L forms follow the SMILES beside them. Triazole bridges read from a SMILES are 1,4-linked. Aha = [N-]=[N+]=NCC[C@H](N)C(=O)O; Pra = C#CC[C@H](N)C(=O)O; Dap = NC[C@H](N)C(=O)O

What follows are compounds tested against Neuronal acetylcholine receptor; alpha9/alpha10 (Homo sapiens) (UniProt Q9UGM1+Q9GZZ6) (assay: Antagonist activity at human alpha9alpha10 nAChR expressed in acetylcholine-induced Xenopus laevis oocytes assessed as inhibition of acetylcholine-induced current at 10 nM at -80 mV holding potential incubated for 5 mins by two electrode voltage-clamp assay relative to control). Conditions: Oocyte.
Type: cell-based
`CC[C@H](C)[C@@H]1NC(=O)[C@H](CC(=O)O)NC(=O)[C@@H]2CCCN2C(=O)[C@H](CC(N)=O)NC(=O)[C@H](CC(N)=O)NC(=O)[C@H](C(C)C)NC(=O)[C@H](CO)NC(=O)[C@@H]2CSSC[C@H](NC(=O)CN)C(=O)N[C@@H](CCn3cc(nn3)C[C@@H](C(N)=O)NC1=O)C(=O)N[C@@H](CN)C(=O)N[C@@H](Cc1cnc[nH]1)C(=O)N1CCC[C@H]1C(=O)N[C@@H](C)C(=O)N2` (H-GC[Aha][Dap]HPACSVNNPDI[Pra]-NH2; disulfide 2-8; triazole 3-16) gave an inhibition of under 15%.
Work on `CC[C@H](C)[C@@H]1NC(=O)[C@H](CC(=O)O)NC(=O)[C@@H]2CCCN2C(=O)[C@H](CC(N)=O)NC(=O)[C@H](CC(N)=O)NC(=O)[C@H](C(C)C)NC(=O)[C@H](CO)NC(=O)[C@@H]2CSSC[C@H](NC(=O)CN)C(=O)N[C@@H](Cc3cn(nn3)CC[C@@H](C(N)=O)NC1=O)C(=O)N[C@@H](CN)C(=O)N[C@@H](Cc1cnc[nH]1)C(=O)N1CCC[C@H]1C(=O)N[C@@H](C)C(=O)N2` (H-GC[Pra][Dap]HPACSVNNPDI[Aha]-NH2; disulfide 2-8; triazole 3-16) yielded an inhibition of under 15%.
`CC[C@H](C)[C@@H]1NC(=O)[C@H](CC(=O)O)NC(=O)[C@@H]2CCCN2C(=O)[C@H](CC(N)=O)NC(=O)[C@H](CC(N)=O)NC(=O)[C@H](C(C)C)NC(=O)[C@H](CO)NC(=O)[C@@H]2CSCSC[C@@H]3NC(=O)CNC(=O)[C@@H](N)CCC(=O)NCC[C@@H](C(N)=O)NC(=O)[C@H](CSSC[C@H](NC3=O)C(=O)N[C@@H](CN)C(=O)N[C@@H](Cc3cnc[nH]3)C(=O)N3CCC[C@H]3C(=O)N[C@@H](C)C(=O)N2)NC1=O` (HELM PEPTIDE1{E.G.C.C.[NC[C@H](N[*:1])C(=O)[*:2]].H.P.A.C.S.V.N.N.P.D.I.C.[Dab].[am]}|CHEM1{[C([*:1])[*:2]]}$PEPTIDE1,PEPTIDE1,1:R3-18:R3|PEPTIDE1,CHEM1,3:R3-1:R1|PEPTIDE1,CHEM1,9:R3-1:R2|PEPTIDE1,PEPTIDE1,4:R3-17:R3$$$V2.0) showed an inhibition of under 5%.
In the case of `CC[C@H](C)[C@@H]1NC(=O)[C@H](CC(=O)O)NC(=O)[C@@H]2CCCN2C(=O)[C@H](CC(N)=O)NC(=O)[C@H](CC(N)=O)NC(=O)[C@H](C(C)C)NC(=O)[C@H](CO)NC(=O)[C@@H]2CSSC[C@H](NC(=O)CN)C(=O)N[C@@H](CCC(=O)NCC[C@@H](C(N)=O)NC1=O)C(=O)N[C@@H](CN)C(=O)N[C@@H](Cc1cnc[nH]1)C(=O)N1CCC[C@H]1C(=O)N[C@@H](C)C(=O)N2` (HELM PEPTIDE1{G.C.E.[NC[C@H](N[*:1])C(=O)[*:2]].H.P.A.C.S.V.N.N.P.D.I.[Dab].[am]}$PEPTIDE1,PEPTIDE1,2:R3-8:R3|PEPTIDE1,PEPTIDE1,3:R3-16:R3$$$V2.0), the inhibition is reported as under 5%.
With `CC[C@H](C)[C@@H]1NC(=O)[C@H](CC(=O)O)NC(=O)[C@@H]2CCCN2C(=O)[C@H](CC(N)=O)NC(=O)[C@H](CC(N)=O)NC(=O)[C@H](C(C)C)NC(=O)[C@H](CO)NC(=O)[C@@H]2CSSC[C@H](NC(=O)CN)C(=O)N[C@@H](CCNC(=O)C[C@@H](C(N)=O)NC1=O)C(=O)N[C@@H](CN)C(=O)N[C@@H](Cc1cnc[nH]1)C(=O)N1CCC[C@H]1C(=O)N[C@@H](C)C(=O)N2` (HELM PEPTIDE1{G.C.[Dab].[NC[C@H](N[*:1])C(=O)[*:2]].H.P.A.C.S.V.N.N.P.D.I.D.[am]}$PEPTIDE1,PEPTIDE1,2:R3-8:R3|PEPTIDE1,PEPTIDE1,3:R3-16:R3$$$V2.0) the inhibition was under 5%.
With `CC[C@H](C)[C@@H]1NC(=O)[C@H](CC(=O)O)NC(=O)[C@@H]2CCCN2C(=O)[C@H](CC(N)=O)NC(=O)[C@H](CC(N)=O)NC(=O)[C@H](C(C)C)NC(=O)[C@H](CO)NC(=O)[C@@H]2CSSC[C@@H]3NC(=O)CNC(=O)[C@@H](N)CCNC(=O)C[C@@H](C(N)=O)NC(=O)[C@H](CSSC[C@H](NC3=O)C(=O)N[C@@H](CN)C(=O)N[C@@H](Cc3cnc[nH]3)C(=O)N3CCC[C@H]3C(=O)N[C@@H](C)C(=O)N2)NC1=O` (HELM PEPTIDE1{[Dab].G.C.C.[NC[C@H](N[*:1])C(=O)[*:2]].H.P.A.C.S.V.N.N.P.D.I.C.D.[am]}$PEPTIDE1,PEPTIDE1,1:R3-18:R3|PEPTIDE1,PEPTIDE1,3:R3-9:R3|PEPTIDE1,PEPTIDE1,4:R3-17:R3$$$V2.0) the inhibition was under 5%.
